In paper PMC13600255 (Journal of the American Chemical Society, 2025):
“And” between values parts separate entries of the source, which are not always exact repeats. Identical values can stand only once. “Also recorded” adds a separate entry of the source. Like-named read-outs stand apart in the source and are kept apart here.

Experiments:
mouse VMAT2 (mVMAT2) = mouse VMAT2 (mVMAT2) (Mus musculus, UniProt Q8BRU6); assay: FFN200 two-photon imaging of VMAT2 function in acute mouse brain slices; type: cell-based; conditions: for Effect on FFN200 uptake / punctate labeling: 2 μM for 30 minutes, FFN200 10 μM, dorsal striatum
rVMAT2 = rVMAT2 (Rattus norvegicus, UniProt Q01827); assay: [3H]DTBZ binding competition in rat brain synaptic vesicles
SERT [1] = biological target: SERT (Rattus norvegicus, UniProt P31652); assay: [3H]5-HT release from rat brain synaptosomes via SERT; type: biochemical; conditions: rat brain synaptosomes; for [3H]5-HT Release % Emax via SERT / [3H]5-HT Release EC50 ± SD via SERT: n = 3; for [3H]5-HT Release EC50 ± SD via SERT: active releaser: EC50 < 10 μM and Emax > 30%
rat VMAT2 (rVMAT2) = rat VMAT2 (rVMAT2) (Rattus norvegicus, UniProt Q01827); assay: [3H]5-HT uptake inhibition in rat brain synaptic vesicular fraction; type: biochemical; conditions: read-out: Uptake Inhibition at VMAT2 IC50, [3H]5-HT (rVMAT2); rat brain synaptic vesicles
rat SERT (rSERT) [2] = biological target: T1, rat SERT (rSERT) (Rattus norvegicus, UniProt P31652); assay: [3H]5-HT uptake inhibition in rat brain synaptosomes; type: biochemical; conditions: rat brain synaptosomes
VMAT2 = VMAT2 (Rattus norvegicus, UniProt Q01827); assay: [3H]5-HT release from rat brain synaptic vesicles via VMAT2; type: biochemical; conditions: for [3H]5-HT Release % Emax via VMAT2: rat brain vesicular fraction, 5-HT control set as Emax = 100%
hVMAT2 [3] = biological target: T2, hVMAT2 (Homo sapiens, UniProt Q05940); conditions: read-out: IC50, VMAT2 binding, cortex; human brain cortex; cited from earlier work
Lipophilicity = type: physicochemical; conditions: noribogaine versus ibogamine
mice [4] = assay: Catalepsy bar test in mice; type: in vivo, mouse; conditions: mice, s.c.
rat SERT (rSERT) [5] = biological target: T1, rat SERT (rSERT); conditions: cited from earlier work
mice [6] = assay: Loss of righting reflex; type: in vivo, mouse; conditions: high doses
hVMAT2 [7] = biological target: T2, hVMAT2; assay: FFN206 fluorescent substrate uptake inhibition in hVMAT2-HEK cells; type: cell-based
SERT [8] = conditions: SERT-transfected cells; cited from earlier work
[9] = Pharmacokinetics in mice, estimated free drug concentration in brain; type: in vivo, mouse
hDAT = hDAT (Homo sapiens, UniProt Q01959); assay: APP+ fluorescent substrate uptake inhibition in hDAT-HEK cells; type: cell-based; conditions: read-out: IC50, hDAT
hOCT2 = biological target: T3, hOCT2 (Homo sapiens, UniProt O15244); assay: ASP+ fluorescent substrate uptake inhibition at OCT2; type: cell-based; conditions: read-out: IC50, hOCT2; ASP+ fluorescent substrate
T3 sequence (O15244 1-555): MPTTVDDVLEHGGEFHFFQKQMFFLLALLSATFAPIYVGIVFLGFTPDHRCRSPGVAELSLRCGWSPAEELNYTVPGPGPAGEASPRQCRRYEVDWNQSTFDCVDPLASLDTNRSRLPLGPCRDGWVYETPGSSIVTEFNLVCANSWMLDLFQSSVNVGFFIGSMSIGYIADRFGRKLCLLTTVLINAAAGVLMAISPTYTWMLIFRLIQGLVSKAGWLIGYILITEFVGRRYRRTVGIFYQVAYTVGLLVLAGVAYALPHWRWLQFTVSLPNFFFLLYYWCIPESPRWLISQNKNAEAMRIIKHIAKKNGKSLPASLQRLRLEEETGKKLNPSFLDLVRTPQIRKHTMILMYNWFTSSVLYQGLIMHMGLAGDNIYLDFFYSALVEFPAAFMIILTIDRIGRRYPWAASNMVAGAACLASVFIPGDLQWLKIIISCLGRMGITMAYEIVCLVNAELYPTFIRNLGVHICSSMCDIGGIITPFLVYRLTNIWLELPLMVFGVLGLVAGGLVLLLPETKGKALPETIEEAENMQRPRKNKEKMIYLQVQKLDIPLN

humans [10] = conditions: top dose of 180 mg, p.o.; cited from earlier work
mice [11] = assay: Open field locomotor activity test in mice; type: in vivo, mouse; conditions: s.c.
[12] = tested on: other uptake 2 transporters (OCT1, OCT3, PMAT); assay: Fluorescent substrate uptake inhibition at the other uptake 2 transporters; type: cell-based
SERT [13] = biological target: SERT (Mus musculus, UniProt Q60857); assay: SERTlight two-photon imaging of SERT function in acute mouse brain slices; type: cell-based; conditions: for Effect on SERTlight labeling of 5-HT axons: 2 μM for 30 minutes, SERTlight 10 μM, SNpr, DS, SSp2/3
humans [14] = conditions: after a single treatment; cited from earlier work
MAO A = biological target: T4, MAO A (Homo sapiens, UniProt P21397); assay: MAO A activity; type: biochemical; conditions: Figure S16
T4 sequence (P21397 1-527): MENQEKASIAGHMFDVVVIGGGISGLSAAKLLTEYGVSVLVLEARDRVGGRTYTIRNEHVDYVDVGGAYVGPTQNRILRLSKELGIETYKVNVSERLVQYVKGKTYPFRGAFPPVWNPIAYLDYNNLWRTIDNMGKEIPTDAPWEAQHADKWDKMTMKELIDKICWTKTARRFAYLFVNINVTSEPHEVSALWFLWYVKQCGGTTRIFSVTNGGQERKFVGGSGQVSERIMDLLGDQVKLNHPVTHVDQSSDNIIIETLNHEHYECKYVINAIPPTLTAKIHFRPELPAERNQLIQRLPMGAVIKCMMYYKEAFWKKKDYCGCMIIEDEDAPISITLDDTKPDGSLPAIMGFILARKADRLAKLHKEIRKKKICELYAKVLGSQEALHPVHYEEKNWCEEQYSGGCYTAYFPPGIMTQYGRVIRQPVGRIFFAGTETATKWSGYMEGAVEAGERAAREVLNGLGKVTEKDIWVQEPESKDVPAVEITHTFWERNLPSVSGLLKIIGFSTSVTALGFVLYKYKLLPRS

Sequence of VMAT2 (Q01827 whole entry): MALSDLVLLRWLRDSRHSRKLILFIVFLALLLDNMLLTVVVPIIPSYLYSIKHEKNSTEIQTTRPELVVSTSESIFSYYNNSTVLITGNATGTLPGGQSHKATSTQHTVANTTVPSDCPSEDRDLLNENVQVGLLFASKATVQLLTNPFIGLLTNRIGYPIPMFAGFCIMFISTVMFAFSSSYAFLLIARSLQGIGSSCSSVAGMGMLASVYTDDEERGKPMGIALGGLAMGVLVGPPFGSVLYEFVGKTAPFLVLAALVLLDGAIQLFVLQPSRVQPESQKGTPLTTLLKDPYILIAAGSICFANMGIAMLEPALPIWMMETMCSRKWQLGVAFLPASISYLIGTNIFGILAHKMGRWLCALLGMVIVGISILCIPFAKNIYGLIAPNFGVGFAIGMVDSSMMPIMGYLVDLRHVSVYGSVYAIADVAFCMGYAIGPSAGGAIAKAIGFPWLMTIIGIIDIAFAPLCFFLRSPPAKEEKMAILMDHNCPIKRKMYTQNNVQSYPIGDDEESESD
T2 sequence (Q05940 whole entry): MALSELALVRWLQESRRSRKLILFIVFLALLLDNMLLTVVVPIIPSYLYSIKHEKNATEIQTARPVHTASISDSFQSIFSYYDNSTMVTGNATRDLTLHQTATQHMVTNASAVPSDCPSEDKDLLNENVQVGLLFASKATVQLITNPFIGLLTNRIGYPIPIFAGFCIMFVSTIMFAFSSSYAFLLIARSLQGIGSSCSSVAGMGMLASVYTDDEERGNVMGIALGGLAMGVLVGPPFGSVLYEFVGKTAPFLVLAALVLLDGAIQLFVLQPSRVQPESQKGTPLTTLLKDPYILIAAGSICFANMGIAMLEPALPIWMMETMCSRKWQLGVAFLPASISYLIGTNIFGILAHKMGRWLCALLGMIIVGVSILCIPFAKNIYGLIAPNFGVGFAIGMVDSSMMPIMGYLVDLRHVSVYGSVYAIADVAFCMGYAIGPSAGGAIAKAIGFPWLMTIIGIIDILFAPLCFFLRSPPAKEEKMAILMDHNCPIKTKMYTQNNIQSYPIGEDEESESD
Sequence of SERT (Rattus norvegicus, UniProt P31652) (P31652 whole entry): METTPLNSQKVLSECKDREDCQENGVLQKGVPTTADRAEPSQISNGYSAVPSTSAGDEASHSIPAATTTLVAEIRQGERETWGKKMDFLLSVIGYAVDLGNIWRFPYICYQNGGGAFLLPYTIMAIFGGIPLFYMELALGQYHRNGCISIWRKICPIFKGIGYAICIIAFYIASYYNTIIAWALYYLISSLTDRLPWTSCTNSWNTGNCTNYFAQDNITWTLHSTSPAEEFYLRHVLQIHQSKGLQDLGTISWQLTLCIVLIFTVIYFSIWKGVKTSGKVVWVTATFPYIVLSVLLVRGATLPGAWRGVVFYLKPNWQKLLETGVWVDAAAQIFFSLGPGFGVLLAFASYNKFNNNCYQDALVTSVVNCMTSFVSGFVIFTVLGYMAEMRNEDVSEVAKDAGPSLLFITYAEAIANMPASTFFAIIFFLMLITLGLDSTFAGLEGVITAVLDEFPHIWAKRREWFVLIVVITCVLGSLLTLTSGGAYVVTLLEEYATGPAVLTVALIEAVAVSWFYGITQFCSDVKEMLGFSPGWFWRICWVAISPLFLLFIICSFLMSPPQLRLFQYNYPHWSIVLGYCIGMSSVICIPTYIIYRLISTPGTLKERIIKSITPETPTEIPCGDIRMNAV
T1 sequence (P31652 whole entry): as above
Sequence of SERT (Mus musculus, UniProt Q60857) (Q60857 whole entry): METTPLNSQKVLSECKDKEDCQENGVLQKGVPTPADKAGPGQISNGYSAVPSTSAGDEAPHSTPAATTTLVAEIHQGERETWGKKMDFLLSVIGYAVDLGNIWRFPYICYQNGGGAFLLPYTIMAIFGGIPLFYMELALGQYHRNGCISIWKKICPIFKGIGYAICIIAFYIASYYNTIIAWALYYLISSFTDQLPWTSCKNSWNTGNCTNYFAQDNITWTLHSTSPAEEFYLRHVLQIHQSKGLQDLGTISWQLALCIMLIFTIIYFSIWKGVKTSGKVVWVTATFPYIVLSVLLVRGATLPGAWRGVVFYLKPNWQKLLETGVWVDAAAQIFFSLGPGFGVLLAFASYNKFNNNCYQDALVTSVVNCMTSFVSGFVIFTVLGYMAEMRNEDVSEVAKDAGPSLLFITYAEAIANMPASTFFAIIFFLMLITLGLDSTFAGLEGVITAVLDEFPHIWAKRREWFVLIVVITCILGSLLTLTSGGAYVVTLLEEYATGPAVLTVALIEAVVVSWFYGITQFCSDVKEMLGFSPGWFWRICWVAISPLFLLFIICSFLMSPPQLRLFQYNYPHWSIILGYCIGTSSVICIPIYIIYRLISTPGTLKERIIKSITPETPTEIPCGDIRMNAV
Sequence of mouse VMAT2 (mVMAT2) (Q8BRU6 whole entry): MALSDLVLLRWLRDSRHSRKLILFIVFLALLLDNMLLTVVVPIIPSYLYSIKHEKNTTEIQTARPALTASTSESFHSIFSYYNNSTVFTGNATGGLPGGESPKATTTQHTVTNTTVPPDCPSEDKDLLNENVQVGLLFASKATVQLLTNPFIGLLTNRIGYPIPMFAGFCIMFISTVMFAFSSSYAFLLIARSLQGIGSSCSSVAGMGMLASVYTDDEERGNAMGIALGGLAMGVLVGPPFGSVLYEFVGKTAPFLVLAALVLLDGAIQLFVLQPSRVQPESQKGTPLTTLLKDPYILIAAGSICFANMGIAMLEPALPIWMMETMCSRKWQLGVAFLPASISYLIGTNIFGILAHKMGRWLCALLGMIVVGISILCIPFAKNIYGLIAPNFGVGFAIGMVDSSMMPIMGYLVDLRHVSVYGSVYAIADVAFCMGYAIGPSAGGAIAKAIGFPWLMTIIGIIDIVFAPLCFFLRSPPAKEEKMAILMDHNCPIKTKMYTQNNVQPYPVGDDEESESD
Sequence of rVMAT2 (Q01827 whole entry): as the sequence (Q01827 whole entry) above
Sequence of rat VMAT2 (rVMAT2) (Q01827 whole entry): as above
Sequence of hDAT (Q01959 whole entry): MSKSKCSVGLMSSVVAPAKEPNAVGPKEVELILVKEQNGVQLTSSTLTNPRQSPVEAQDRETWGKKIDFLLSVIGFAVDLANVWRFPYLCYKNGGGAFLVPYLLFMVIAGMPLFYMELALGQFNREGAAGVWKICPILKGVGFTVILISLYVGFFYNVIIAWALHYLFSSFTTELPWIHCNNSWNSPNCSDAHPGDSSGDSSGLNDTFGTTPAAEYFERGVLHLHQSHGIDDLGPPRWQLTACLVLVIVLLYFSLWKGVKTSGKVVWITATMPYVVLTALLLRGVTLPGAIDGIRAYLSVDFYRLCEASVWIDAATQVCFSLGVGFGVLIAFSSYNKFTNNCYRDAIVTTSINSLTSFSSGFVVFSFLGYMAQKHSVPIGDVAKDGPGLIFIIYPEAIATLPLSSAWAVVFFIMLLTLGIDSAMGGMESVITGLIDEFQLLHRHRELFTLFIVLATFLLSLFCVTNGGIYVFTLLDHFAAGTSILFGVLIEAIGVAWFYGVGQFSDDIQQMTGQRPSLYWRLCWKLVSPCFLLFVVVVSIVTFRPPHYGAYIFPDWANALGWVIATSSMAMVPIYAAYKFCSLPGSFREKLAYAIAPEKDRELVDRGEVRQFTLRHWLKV

For `CC[C@H]1C[C@H]2C[C@H]3c4[nH]c5ccc(O)cc5c4CCN(C2)[C@@H]13` [noribogaine], the “Effect on FFN200 uptake / punctate labeling” value (mouse VMAT2 (mVMAT2)) was “strong inhibitory effects; also recorded: completely inhibited FFN200 uptake”, the IC50 (mouse VMAT2 (mVMAT2); read-out: IC50 FFN200 uptake in acute mouse slices, number of puncta per image, dose-response) was 160 nM and the “[3H]DTBZ displacement” value (rVMAT2) was < 20%. The IC50 (rVMAT2; read-out: IC50, rVMAT2 ([3H]DTBZ competition)) was > 10 µM, the “[3H]5-HT release from preloaded synaptosomes (qualitative)” value (SERT [1]) was “No [^3H]5-HT release was observed” and the “[3H]5-HT Release % Emax via SERT” value (SERT [1]) was < 30%. The “[3H]5-HT Release EC50 ± SD via SERT” value (SERT [1]) was “inactive”, the IC50 (rat VMAT2 (rVMAT2)) was 1310 nM and the IC50 (rat SERT (rSERT) [2]; read-out: Uptake Inhibition at SERT IC50, [3H]5-HT (rSERT)) was 326 nM. For the same compound, the IC50 (rat SERT (rSERT) [2]; read-out: [3H]5-HT Uptake Inhibition IC50 ± SD, SERT, n = 3) was 326 ± 47.6 nM, the “[3H]5-HT Release % Emax via VMAT2” value (VMAT2) was 50% and the EC50 (VMAT2; read-out: [3H]5-HT Release EC50 ± SD via VMAT2) was 6.48 µM. For the same compound, the IC50 (hVMAT2 [3]) was 5 µM, the “Less lipophilic than ibogamine by” value (Lipophilicity) was 1.75 log D units and the “Catalepsy in bar test” value (mice [4]; high doses 30, 50 and 80 mg/kg) was “did not induce catalepsy; also recorded: did not show any catalepsy”. The “Catalepsy in bar test” value (mice [4]; dose-response) was “does not result in catalepsy”, the IC50 (rat SERT (rSERT) [5]; read-out: IC50, rSERT reported previously in rat synaptosomes) was 330 nM and the “Loss of righting reflex (LORR)” value (mice [6]) was “did not observe a loss of righting reflex”. The IC50 (hVMAT2 [7]; read-out: IC50, hVMAT2 (uptake inhibition, FFN206), hVMAT2-HEK cells, fluorescent substrate FFN206, n = 4) was 570 nM, the “Partial [3H]5-HT release Emax” value (SERT [8]) was ~ 30% and the “Cmax, estimated free brain concentration” value ([9]; mice, 10 mg/kg, s.c.) was ~ 6.6 μM. The “Cmax, estimated free drug in the brain” value ([9]; mice, 50 mg/kg, s.c.) was 31 µM and > 20 µM, the “Concentration of free drug in the brain over plasma” value ([9]; rodents (rats ref 11 and mice, Figure S11)) was > 4 fold and the IC50 (hDAT) was 6.76 µM. The IC50 (hOCT2) was 6.18 µM, the Dose-limiting cardiac effect (humans [10]) was “cardiac QT interval prolongation” and the “Locomotion in open field test” value (mice [11]; 30 mg/kg) was “strongly suppressed”. For the same compound, the “Locomotor activity / sedation in open field test” value (mice [11]; dose-response) was “diminished ambulatory behavior”, the “Inhibition at the other uptake 2 transporters examined” value [12] was “no inhibition below 10 μM” and the “Effect on somatodendritic SERTlight labeling in dorsal raphe” value (shortened to “Effect … in dorsal raphe”) (SERT [13]; 2 μM) was “showed no effect”. The “Effect on SERTlight labeling of 5-HT axons” value (SERT [13]) was “ablated SERTlight probe uptake; also recorded: completely blocked the SERTlight signal; also recorded: completely inhibited the axonal SERT”, the “Effect … in dorsal raphe” value (SERT [13]; 10 μM) was “showed no effect” and the “Effect … in dorsal raphe” value (SERT [13]; 30 μM) was “no apparent effect”. For the same compound, the “Effect … in dorsal raphe” value (SERT [13]; 100 μM) was “clear inhibition” and the “Inhibitory potency on SERTlight staining in dorsal raphe, dose-response” value (SERT [13]; 10, 30, 50, and 100 μM) was “weak inhibitory potency”.

In the case of ibogaine, the “Effect on FFN200 uptake / punctate labeling” value (mouse VMAT2 (mVMAT2)) is reported as “strong inhibitory effects; also recorded: completely inhibited FFN200 uptake”, the “[3H]5-HT release from preloaded synaptosomes (qualitative)” value (SERT [1]) is reported as “No [^3H]5-HT release was observed” and the “[3H]5-HT Release % Emax via SERT” value (SERT [1]) is reported as < 30%. For the same compound, the “[3H]5-HT Release EC50 ± SD via SERT” value (SERT [1]) was “inactive”, the “Concentration at which [3H]5-HT release exceeds Emax of 30%” value (VMAT2; rat brain synaptic vesicles) was > 10 µM and the “[3H]5-HT Release % Emax via VMAT2” value (VMAT2) was < 30%. The Remission (humans [14]) was 80%, the “Ratio of binding to uptake inhibitory constants at SERT” value (rat SERT (rSERT) [5]) was ~ 1 and the “Activity at MAO A” value (MAO A) was “no activity”. The “Selectivity hVMAT2 over hSERT” value (hVMAT2 [7]; ratio of IC50 values, cell-based fluorometry) was “seven-fold more potent at VMAT2”, the “Inhibition at the other uptake 2 transporters examined” value [12] was “no inhibition below 10 μM” and the “Effect on SERTlight labeling of 5-HT axons” value (SERT [13]) was “did not alter probe uptake; also recorded: had no effect on SERTlight labeling”.
